In US20230219931A1, “FUSED HETEROARYL HYDROXAMATES AS STING AGONISTS” (BiSiChem Co., Ltd., priority 2022, published 2023) one finds EC50 data, which are given here for 13 compounds.

For orientation: pEC50 means −log10 of the EC50, conventionally taken in molar units. Low readings indicate a high EC50, high ones a low EC50.

In this assay the test system is ISG reporter activity in THP1-Dual cell. The assay is described as follows: ISG reporter assay. The assay is classed as cell-based. The settings on record: Homo sapiens, compounds incubated with cells for 24 hours, QUANTI-Blue, absorbance at 655 nm. For orientation: Reporter assays use an easily measured gene product as a stand-in for the process of interest.

pEC50: −log10 of the molar value. Structures can show the parent of a compound that is named as a salt.

As for `CCn1nc(C)cc1C(=O)Nc1nc2cc(C(=O)NOC)cc(OC)c2n1C/C=C/Cn1c(NC(=O)c2cc(C)nn2CC)nc2cc(C(N)=O)cc(OCC#CCN3CCOCC3)c21` [Example 40, (E)-1-(4-(5-carbamoyl-2-(1-ethyl-3-methyl-1H-pyrazole-5-carboxamido)-7-((4-morpholinobut-2-yn-1-yl)oxy)-1H-benzo[d]imidazol-1-yl)but-2-en-1-yl)-2-(1-ethyl-3-methyl-1H-pyrazole-5-carboxamido)-N,7-dimethoxy-1H-benzo[d]imidazole-5-carboxamide], the pEC50 was 6.30 to 7.30. In turn, `CCn1nc(C)cc1C(=O)Nc1nc2cc(C(N)=O)cc(OC)c2n1C/C=C/Cn1c(NC(=O)c2cc(C)nn2CC)nc2cc(C(N)=O)cc(OCC#CC(C)(C)N3CCN(C(=O)OC(C)(C)C)CC3)c21` [Example 41, tert-butyl (E)-4-(5-((5-carbamoyl-1-(4-(5-carbamoyl-2-(1-ethyl-3-methyl-1H-pyrazole-5-carboxamido)-7-methoxy-1H-benzo[d]imidazol-1-yl)but-2-en-1-yl)-2-(1-ethyl-3-methyl-1H-pyrazole-5-carboxamido)-1H-benzo[d]imidazol-7-yl)oxy)-2-methylpent-3-yn-2-yl)piperazine-1-carboxylate] gave a negative logarithm of the EC50 (pEC50) above 7.30. With `CCn1nc(C)cc1C(=O)Nc1nc2cc(C(N)=O)cc(OC)c2n1C/C=C/Cn1c(NC(=O)c2cc(C)nn2CC)nc2cc(C(N)=O)cc(OCC#CCC3CCN(C(=O)OC(C)(C)C)CC3)c21` [Example 42, tert-butyl (E)-4-(4-((5-carbamoyl-1-(4-(5-carbamoyl-2-(1-ethyl-3-methyl-1H-pyrazole-5-carboxamido)-7-methoxy-1H-benzo[d]imidazol-1-yl)but-2-en-1-yl)-2-(1-ethyl-3-methyl-1H-pyrazole-5-carboxamido)-1H-benzo[d]imidazol-7-yl)oxy)but-2-yn-1-yl)piperidine-1-carboxylate] the figure was above 7.30; with `CCn1nc(C)cc1C(=O)Nc1nc2cc(C(N)=O)cc(OC)c2n1C/C=C/Cn1c(NC(=O)c2cc(C)nn2CC)nc2cc(C(N)=O)cc(OCC#CCC3CCNCC3)c21` [Example 43, (E)-1-(4-(5-carbamoyl-2-(1-ethyl-3-methyl-1H-pyrazole-5-carboxamido)-7-((4-(piperidin-4-yl)but-2-yn-1-yl)oxy)-1H-benzo[d]imidazol-1-yl)but-2-en-1-yl)-2-(1-ethyl-3-methyl-1H-pyrazole-5-carboxamido)-7-methoxy-1H-benzo[d]imidazole-5-carboxamide hydrochloride], 6.30 to 7.30.

`CCn1nc(C)cc1C(=O)Nc1nc2cc(C(N)=O)cc(OC)c2n1C/C=C/Cn1c(NC(=O)c2cc(C)nn2CC)nc2cc(C(N)=O)cc(OCC#CCC3CCN(C(=O)OC4CC4)CC3)c21` [Example 44, cyclopropyl (E)-4-(4-((5-carbamoyl-1-(4-(5-carbamoyl-2-(1-ethyl-3-methyl-1H-pyrazole-5-carboxamido)-7-methoxy-1H-benzo[d]imidazol-1-yl)but-2-en-1-yl)-2-(1-ethyl-3-methyl-1H-pyrazole-5-carboxamido)-1H-benzo[d]imidazol-7-yl)oxy)but-2-yn-1-yl)piperidine-1-carboxylate] showed a pEC50 above 7.30.

Take `CCn1nc(C)cc1C(=O)Nc1nc2cc(C(N)=O)cc(OC)c2n1C/C=C/Cn1c(NC(=O)c2cc(C)nn2CC)nc2cc(C(N)=O)cc(OCC#CCC3CCN(C(=O)OCCO)CC3)c21` [Example 45, 2-hydroxyethyl (E)-4-(4-((5-carbamoyl-1-(4-(5-carbamoyl-2-(1-ethyl-3-methyl-1H-pyrazole-5-carboxamido)-7-methoxy-1H-benzo[d]imidazol-1-yl)but-2-en-1-yl)-2-(1-ethyl-3-methyl-1H-pyrazole-5-carboxamido)-1H-benzo[d]imidazol-7-yl)oxy)but-2-yn-1-yl)piperidine-1-carboxylate]: the pEC50 is above 7.30. With `CCn1nc(C)cc1C(=O)Nc1nc2cc(C(N)=O)cc(OC)c2n1C/C=C/Cn1c(NC(=O)c2cc(C)nn2CC)nc2cc(C(N)=O)cc(OCC#CCC3CCN(C(=O)C4CCN(C(=O)OC(C)(C)C)CC4)CC3)c21` [Example 46, tert-butyl (E)-4-(4-(4-((5-carbamoyl-1-(4-(5-carbamoyl-2-(1-ethyl-3-methyl-1H-pyrazole-5-carboxamido)-7-methoxy-1H-benzo[d]imidazol-1-yl)but-2-en-1-yl)-2-(1-ethyl-3-methyl-1H-pyrazole-5-carboxamido)-1H-benzo[d]imidazol-7-yl)oxy)but-2-yn-1-yl)piperidine-1-carbonyl)piperidine-1-carboxylate] the figure was above 7.30; with `CCn1nc(C)cc1C(=O)Nc1nc2cc(C(N)=O)cc(OC)c2n1C/C=C/Cn1c(NC(=O)c2cc(C)nn2CC)nc2cc(C(N)=O)cc(OCC#CCC3CCN(C(=O)N4CCN(C(=O)OC(C)(C)C)CC4)CC3)c21` [Example 47, tert-butyl (E)-4-(4-(4-((5-carbamoyl-1-(4-(5-carbamoyl-2-(1-ethyl-3-methyl-1H-pyrazole-5-carboxamido)-7-methoxy-1H-benzo[d]imidazol-1-yl)but-2-en-1-yl)-2-(1-ethyl-3-methyl-1H-pyrazole-5-carboxamido)-1H-benzo[d]imidazol-7-yl)oxy)but-2-yn-1-yl)piperidine-1-carbonyl)piperazine-1-carboxylate], above 7.30; with `CCn1nc(C)cc1C(=O)Nc1nc2cc(C(N)=O)cc(OC)c2n1C/C=C/Cn1c(NC(=O)c2cc(C)nn2CC)nc2cc(C(N)=O)cc(OCC#CCC3CCN(S(=O)(=O)C4CC4)CC3)c21` [Example 48, (E)-1-(4-(5-carbamoyl-2-(1-ethyl-3-methyl-1H-pyrazole-5-carboxamido)-7-methoxy-1H-benzo[d]imidazol-1-yl)but-2-en-1-yl)-7-((4-(1-(cyclopropylsulfonyl)piperidin-4-yl)but-2-yn-1-yl)oxy)-2-(1-ethyl-3-methyl-1H-pyrazole-5-carboxamido)-1H-benzo[d]imidazole-5-carboxamide], above 7.30. For `CCn1nc(C)cc1C(=O)Nc1nc2cc(C(N)=O)cc(OC)c2n1C/C=C/Cn1c(NC(=O)c2cc(C)nn2CC)nc2cc(C(N)=O)cc(OCC#CCC3CCN(S(=O)(=O)N4CCN(C(=O)OC(C)(C)C)CC4)CC3)c21` [Example 49, tert-butyl (E)-4-((4-(4-((5-carbamoyl-1-(4-(5-carbamoyl-2-(1-ethyl-3-methyl-1H-pyrazole-5-carboxamido)-7-methoxy-1H-benzo[d]imidazol-1-yl)but-2-en-1-yl)-2-(1-ethyl-3-methyl-1H-pyrazole-5-carboxamido)-1H-benzo[d]imidazol-7-yl)oxy)but-2-yn-1-yl)piperidin-1-yl)sulfonyl)piperazine-1-carboxylate], the pEC50 was above 7.30. Next, `CCn1nc(C)cc1C(=O)Nc1nc2cc(C(N)=O)cc(OC)c2n1C/C=C/Cn1c(NC(=O)c2cc(C)nn2CC)nc2cc(C(N)=O)cc(OCC#CCC3CN(C(=O)OC(C)(C)C)C3)c21` [Example 50, tert-butyl (E)-3-(4-((5-carbamoyl-1-(4-(5-carbamoyl-2-(1-ethyl-3-methyl-1H-pyrazole-5-carboxamido)-7-methoxy-1H-benzo[d]imidazol-1-yl)but-2-en-1-yl)-2-(1-ethyl-3-methyl-1H-pyrazole-5-carboxamido)-1H-benzo[d]imidazol-7-yl)oxy)but-2-yn-1-yl)azetidine-1-carboxylate]: above 7.30; `CCn1nc(C)cc1C(=O)Nc1nc2cc(C(N)=O)cc(OC)c2n1C/C=C/Cn1c(NC(=O)c2cc(C)nn2CC)nc2cc(C(N)=O)cc(OCC#CCC3CCN(C(=O)OC(C)(C)C)C3)c21` (stereo not shown) [Example 51, tert-butyl (E)-3-(4-((5-carbamoyl-1-(4-(5-carbamoyl-2-(1-ethyl-3-methyl-1H-pyrazole-5-carboxamido)-7-methoxy-1H-benzo[d]imidazol-1-yl)but-2-en-1-yl)-2-(1-ethyl-3-methyl-1H-pyrazole-5-carboxamido)-1H-benzo[d]imidazol-7-yl)oxy)but-2-yn-1-yl)pyrrolidine-1-carboxylate]: above 7.30. Next, `CCn1nc(C)cc1C(=O)Nc1nc2cc(C(N)=O)cc(OC)c2n1C/C=C/Cn1c(NC(=O)c2cc(C)nn2CC)nc2cc(C(N)=O)cc(OCC#CCC3CCCN(C(=O)OC(C)(C)C)C3)c21` (stereo not shown) [Example 52, tert-butyl (E)-3-(4-((5-carbamoyl-1-(4-(5-carbamoyl-2-(1-ethyl-3-methyl-1H-pyrazole-5-carboxamido)-7-methoxy-1H-benzo[d]imidazol-1-yl)but-2-en-1-yl)-2-(1-ethyl-3-methyl-1H-pyrazole-5-carboxamido)-1H-benzo[d]imidazol-7-yl)oxy)but-2-yn-1-yl)piperidine-1-carboxylate]: above 7.30.
